Laboratory results: article PMC4860631, “Pharmacokinetics and tolerability of NSC23925b, a novel P-glycoprotein inhibitor: preclinical study in mice and rats” (Scientific Reports, 2016)
Like-named read-outs stand apart in the source and are kept apart here.

Key:
in vivo = conditions: mouse, in vivo; for AUC(0-inf): AUC0-inf; for AUC(0-t): AUC0-t; for k el: Kel; for half-life: t1/2
Protocol: After dosing, blood samples were collected at different time points for each group. […] Three animals were used for each time point. Approximately 800 μL of blood was collected via orbital vein (a source of collecting sufficient volume of venous blood) from each anesthetized mouse by isoflurane, and 200 μL of blood was collected from the cannula implanted in the jugular vein. The catheter was implanted when the blood sample was collected at the first time point. Next, the blood was transferred to a prepared tube containing sodium heparin anticoagulant and mixed briefly by gentle inversion three to four times. The target and actual time of blood sampling were recorded relative to the time of dosing. Samples were placed on wet ice immediately after collection. Within 1 hour after collection, plasma was separated by centrifugation at 4,000 rpm for 10 minutes at 4 °C. The plasma was protected from light and stored at −80 °C until analyzed by liquid chromatography-mass spectrometry/mass spectrometry (LC-MS/MS) for quantification.
Using the data from the standards, calibration curves were generated for each analytical batch. Aliquots of 10.0 μL of samples, calibraton curve samples, and QC samples were supplemented with 100 μL of precipitant (a mixture of acetone and acetonitrile (30:70)). After vortexing for 3 min and centrifuging at 12,000 rpm for 3 min, 75.00 μL of the supernatant was transferred into a 96-well microplate with an equal volume of water. The 10 μL mixture solution was injected for LC-MS/MS analysis.
Data collection was performed using Analyst version 1.4 from Applied Biosystems. […] The data were also analyzed using Prism 5.0 software. Statistical significance was determined using independent two-tailed Student t-tests and one-way ANOVA for independent data. Differences of P < 0.05 were regarded as significant for all statistical analyses.

CYP2C8 = target: T1, CYP2C8 (Homo sapiens, UniProt P10632); assay: HLM-LC-MS CYP450 inhibition assay, CYP2C8; type: in vitro ADME
T1 construct: from tissue; host or cells: human liver microsomes
T1 sequence (P10632 1-490): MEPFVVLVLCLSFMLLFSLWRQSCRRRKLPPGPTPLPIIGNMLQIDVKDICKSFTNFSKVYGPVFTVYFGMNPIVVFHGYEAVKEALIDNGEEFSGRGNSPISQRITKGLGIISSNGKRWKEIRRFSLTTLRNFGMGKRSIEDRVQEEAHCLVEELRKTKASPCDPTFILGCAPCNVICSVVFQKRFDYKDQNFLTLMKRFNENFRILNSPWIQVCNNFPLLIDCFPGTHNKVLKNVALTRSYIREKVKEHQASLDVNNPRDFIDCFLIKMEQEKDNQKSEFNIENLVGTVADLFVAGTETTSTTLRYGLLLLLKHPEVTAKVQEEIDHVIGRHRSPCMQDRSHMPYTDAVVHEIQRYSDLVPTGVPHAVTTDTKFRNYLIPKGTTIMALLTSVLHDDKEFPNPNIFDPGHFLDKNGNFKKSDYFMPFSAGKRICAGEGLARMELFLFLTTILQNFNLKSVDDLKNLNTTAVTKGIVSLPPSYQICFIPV
Protocol: (§4) A sigmoid-shaped curve (Log(inhibitor) vs. Response-Variable slope) was fitted to the data and the IC50 was calculated using GraphPad Prism software.
(§5) This assay used a cocktail of drug-probe substrates that are specific to each isozyme with HLM and LC-MS detection[33][34]. Each test article and reference inhibitor was dissolved in 40% DMSO and 60% acetonitrile (ACN) mixture. […] Substrates were then added to their respective well containing the compound/HLM solution to start the reaction. […] The solution was centrifuged at 4 °C for 30 min at 3,700 rpm and the supernatant was transferred for LC-MS analysis. The concentrations of the metabolites were determined from standard curves using commercially available metabolite standards. Compounds were tested in triplicate. The half maximal inhibitory concentration (IC50) values were determined by plotting the metabolite formation over the logarithm of the compound concentration using Prism 5.0 software (GraphPad Software Inc., San Diego, CA).

CYP2C9 = target: T2, CYP2C9 (Homo sapiens, UniProt P11712); assay: HLM-LC-MS CYP450 inhibition assay, CYP2C9; type: in vitro ADME
T2 construct: from tissue; host or cells: human liver microsomes
Protocol: as §4, §5

CYP2C19 = target: T3, CYP2C19 (Homo sapiens, UniProt P33261); assay: HLM-LC-MS CYP450 inhibition assay, CYP2C19; type: in vitro ADME
T3 construct: from tissue; host or cells: human liver microsomes
Protocol: Compounds were tested in triplicate.

[1] = Determination of maximum tolerated dose (MTD) in mice; type: in vivo; conditions: mouse, in vivo
Protocol: (§1) The MTD determination assay was composed of sighting study and main study. For the sighting study of the determination maximum tolerable dose (MTD) of NSC23925b, one of each animal (one female rat, one male rat, one female mouse, and one male mouse) was used at each I.V. and I.P. injection dose level. The starting dose was selected from the fixed dose levels (5, 50, 500, 2000 mg/kg) as a dose expected to produce evident toxicity. The first animal was dosed and observed. Time of appearance, degree, and lasting/recovery time of signs were recorded in details. Afterwards, animals were observed twice on the dosing day and then changed to daily observation. The observation lasted at least 14 days. If the first animal died or appeared impaired, the second animal received a middle dose of the two doses and vice versa. The sighting study was completed when a decision on the starting dose for the main study was made.
(§2) During the main study, a total of five animals of one sex were used for each dose level investigated. The five animals were made up of one animal from the sighting study dosed at the selected dose level together with an additional four animals. Each group received one of the fixed doses by I.V. and I.P. based on the sighting study. If the first animal died or appeared impaired, the second animal received a middle dose of the two doses and vice versa.
(§3) Animals were fasted overnight prior to dosing. Following the period of fasting, the animals were weighed and the dose was calculated according to the body weight. After the animals were administrated a dose volume of 10 mL/kg, food was withheld for another 3–4 hours. Individual weights of animals were determined shortly before the test substance was administered and twice weekly thereafter. Weight changes were calculated and recorded. Animals injected with saline were the control group for the weight alteration.

BALB/c mice = assay: as above; type: in vivo; conditions: mice, 5 exposed
Protocol: as §1, §2, §3

[2] = Determination of maximum tolerated dose (MTD) in rats; type: in vivo; conditions: Sprague-Dawley, in vivo, read-out: tolerated dosage (MTD study)
Protocol: as §1, §2, §3

SD rats = assay: as above; type: in vivo; conditions: SD rats, 5 exposed
Protocol: as §1, §2, §3

[3] = male, Sprague-Dawley, rat, in vivo

T3 sequence (P33261 whole entry): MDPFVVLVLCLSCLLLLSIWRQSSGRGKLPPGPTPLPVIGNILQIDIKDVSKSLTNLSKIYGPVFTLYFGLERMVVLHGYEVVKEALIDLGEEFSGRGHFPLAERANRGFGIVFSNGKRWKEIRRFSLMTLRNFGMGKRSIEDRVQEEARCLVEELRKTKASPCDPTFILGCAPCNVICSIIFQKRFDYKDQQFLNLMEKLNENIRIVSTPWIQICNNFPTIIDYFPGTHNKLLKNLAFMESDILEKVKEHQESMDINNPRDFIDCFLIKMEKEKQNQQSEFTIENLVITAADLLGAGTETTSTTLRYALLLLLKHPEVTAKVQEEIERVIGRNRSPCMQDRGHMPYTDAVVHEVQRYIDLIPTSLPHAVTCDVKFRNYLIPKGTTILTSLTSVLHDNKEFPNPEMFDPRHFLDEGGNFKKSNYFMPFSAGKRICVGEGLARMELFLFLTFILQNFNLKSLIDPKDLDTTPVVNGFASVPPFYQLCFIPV
T2 sequence (P11712 whole entry): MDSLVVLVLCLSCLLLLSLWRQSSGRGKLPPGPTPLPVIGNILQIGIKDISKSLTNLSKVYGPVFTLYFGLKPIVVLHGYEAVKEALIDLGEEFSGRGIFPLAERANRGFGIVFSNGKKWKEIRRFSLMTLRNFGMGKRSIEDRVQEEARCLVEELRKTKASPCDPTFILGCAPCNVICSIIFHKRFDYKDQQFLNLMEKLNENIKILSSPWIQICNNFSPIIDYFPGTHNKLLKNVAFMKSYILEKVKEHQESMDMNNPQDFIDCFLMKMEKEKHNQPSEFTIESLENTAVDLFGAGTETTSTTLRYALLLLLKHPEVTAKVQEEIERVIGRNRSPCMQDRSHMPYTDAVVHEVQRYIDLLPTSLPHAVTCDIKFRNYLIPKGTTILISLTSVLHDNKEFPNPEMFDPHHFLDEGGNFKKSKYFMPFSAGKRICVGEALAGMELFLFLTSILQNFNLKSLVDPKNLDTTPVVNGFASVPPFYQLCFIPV

Question: For `COc1ccc(-c2cc(C(O)C3CCCCN3)c3ccccc3n2)cc1` (stereo not shown) [NSC23925b, (2-(4-methoxyphenyl)-4-quinolinyl)(2-piperidinyl)methanol], which “volumes of distribution at a steady state” value (in vivo; male, BALB/c (mice), Sprague-Dawley (rats)) is on record?
Answer: The value was over 9 L/kg.

Question: And the “time of highest concentrations in plasma after I.P. injection” value (in vivo; male, BALB/c (mice), Sprague-Dawley (rats), ip, 5 mg/kg)?
Answer: The value was 1 to 2 h.

Question: And the “time of highest concentrations in plasma after I.V. injection” value (in vivo; male, BALB/c (mice), Sprague-Dawley (rats), iv, 2.5 mg/kg)?
Answer: Its value is 5 min.

Question: And the “time point of peak plasma NSC23925b concentrations for both I.V. and I.P.” value (in vivo; male, BALB/c)?
Answer: The value was 15 min.

Question: What about the AUMC0-inf (in vivo; male, BALB/c, ip, 5 mg/kg) of the same compound?
Answer: Its AUMC0-inf is 50744 ± 36083 h·h·ng·mL^−1.

Question: What about the AUMC0-t (in vivo; male, BALB/c, ip, 5 mg/kg) of the same compound?
Answer: Its AUMC0-t is 25329 ± 4810 h·h·ng·mL^−1.

Question: And the Cmax (in vivo; male, BALB/c, ip, 5 mg/kg)?
Answer: The Cmax was 298 ± 56.1 ng/mL.

Question: What about the F (in vivo; male, BALB/c, ip, 5 mg/kg) of the same compound?
Answer: Its F is 117.1 ± 24.06%.

Question: What about the AUC(0-inf) (in vivo; male, BALB/c, ip, 5 mg/kg) of the same compound?
Answer: Its AUC(0-inf) is 3980 ± 819 ng·h/mL.

Question: What about the AUC(0-t) (in vivo; male, BALB/c, ip, 5 mg/kg) of the same compound?
Answer: Its AUC(0-t) is 3360 ± 197 ng·h/mL.

Question: And the k el (in vivo; male, BALB/c, ip, 5 mg/kg)?
Answer: The k el was 2.56e-05 s⁻¹.

Question: And the half-life (in vivo; male, BALB/c, ip, 5 mg/kg)?
Answer: Its half-life is 8.69 ± 4.18 h.

Question: What about the Tmax (in vivo; male, BALB/c, ip, 5 mg/kg, tmax) of the same compound?
Answer: The Tmax was about 1.5 h.

Question: What about the AUMC0-inf (in vivo; male, BALB/c, iv, 2.5 mg/kg) of the same compound?
Answer: Its AUMC0-inf is 11945 ± 2141 h·h·ng·mL^−1.

Question: What about the AUMC0-t (in vivo; male, BALB/c, iv, 2.5 mg/kg) of the same compound?
Answer: The AUMC0-t was 9893 ± 1299 h·h·ng·mL^−1.

Question: And the MRTIV (in vivo; male, BALB/c, iv, 2.5 mg/kg)?
Answer: The MRTIV was 6.99 ± 0.836 h.

Question: And the AUC(0-inf) (in vivo; male, BALB/c, iv, 2.5 mg/kg)?
Answer: The AUC(0-inf) was 1700 ± 130 ng·h/mL.

Question: And the AUC(0-t) (in vivo; male, BALB/c, iv, 2.5 mg/kg)?
Answer: The AUC(0-t) was 1640 ± 114 ng·h/mL.

Question: And the clearance (in vivo; male, BALB/c, iv, 2.5 mg/kg, CL)?
Answer: The clearance was 24.6 ± 1.96 mL/min/kg.

Question: What about the k el (in vivo; male, BALB/c, iv, 2.5 mg/kg) of the same compound?
Answer: The k el was 3.89e-05 s⁻¹.

Question: And the Vd (in vivo; male, BALB/c, iv, 2.5 mg/kg, VdSS)?
Answer: The Vd was 10.3 ± 0.808 L/kg.

Question: What about the half-life (in vivo; male, BALB/c, iv, 2.5 mg/kg) of the same compound?
Answer: The half-life was 5.01 ± 0.661 h.

Question: And the “treatment-related clinical signs during the pharmacokinetic study” value (in vivo)?
Answer: Its value is “no treatment-related clinical signs were observed”.

Question: And the CYP inhibitor class (CYP2C8)?
Answer: The CYP inhibitor class was “weak (IC50 values of >10 μM)”.

Question: What about the IC50 (CYP2C8; substrate paclitaxel 10 μM, 6α-hydroxylation, read-out: Compound IC50) of the same compound?
Answer: The IC50 was over 10 µM.

Question: What about the CYP inhibitor class (CYP2C9) of the same compound?
Answer: Its CYP inhibitor class is “weak (IC50 values of >10 μM)”.

Question: What about the IC50 (CYP2C9; substrate diclofenac 10 μM, 4-hydroxylation, read-out: Compound IC50) of the same compound?
Answer: Its IC50 is over 10 µM.

Question: And the CYP inhibitor class (CYP2C19)?
Answer: The CYP inhibitor class was “weak (IC50 values of >10 μM)”.

Question: And the IC50 (CYP2C19; substrate S-mephenytoin 35 μM, 4-hydroxylation, read-out: Compound IC50)?
Answer: Its IC50 is over 10 µM.

Question: What about the MTD ([1]; BALB/c, ip, male mice, I.P., all five tolerated, read-out: tolerated dosage (MTD study)) of the same compound?
Answer: The MTD was 68.8 mg/kg.

Question: What about the MTD ([1]; both sexes, BALB/c (mice), Sprague-Dawley (rats), intraperitoneal, intravenous, rodents (mice and rats), I.P./I.V., read-out: tolerated dosage according to the MTD results) of the same compound?
Answer: Its MTD is 24.7 to 93.8 mg/kg.

Question: And the MTD ([1]; both sexes, BALB/c, iv, female and male mice, I.V., health conditions not significantly influenced, read-out: tolerated dosage (MTD study))?
Answer: The MTD was 24.7 mg/kg.

Question: And the “Number of Death” value (BALB/c mice; I.P., 68.80 mg/kg, male)?
Answer: The value was 0.

Question: And the “Number of Death” value (BALB/c mice; I.P., 93.75 mg/kg, female)?
Answer: Its value is 2.

Question: What about the “Number of Death” value (BALB/c mice; I.V., 24.70 mg/kg, female) of the same compound?
Answer: The value was 0.

Question: And the “Number of Death” value (BALB/c mice; I.V., 24.70 mg/kg, male)?
Answer: Its value is 0.

Question: And the MTD ([2]; iv, female rats, I.V., one female rat moribund)?
Answer: The MTD was 47.2 mg/kg.

Question: And the MTD ([2]; rat, ip, male rats, I.P., all in good status)?
Answer: The MTD was 33.1 mg/kg.

Question: And the MTD ([2]; rat, iv, male rats, I.V.)?
Answer: Its MTD is 38.8 mg/kg.

Question: And the “Number of Death” value (SD rats; I.P., 33.10 mg/kg, male)?
Answer: The value was 0.

Question: And the “Number of Death” value (SD rats; I.P., 47.20 mg/kg, female)?
Answer: Its value is 1.

Question: What about the “Number of Death” value (SD rats; I.V., 38.80 mg/kg, male) of the same compound?
Answer: The value was 0.

Question: And the “Number of Death” value (SD rats; I.V., 47.20 mg/kg, female)?
Answer: The value was 1.

Question: And the AUMC0-inf ([3]; ip, 5 mg/kg)?
Answer: Its AUMC0-inf is 38450 ± 36415 h·h·ng·mL^−1.

Question: And the AUMC0-t ([3]; ip, 5 mg/kg)?
Answer: Its AUMC0-t is 13328 ± 5611 h·h·ng·mL^−1.

Question: What about the F ([3]; ip, 5 mg/kg) of the same compound?
Answer: Its F is 110.6 ± 47.4%.

Question: What about the AUMC0-inf ([3]; iv, 2.5 mg/kg) of the same compound?
Answer: The AUMC0-inf was 10502 ± 642 h·h·ng·mL^−1.

Question: What about the AUMC0-t ([3]; iv, 2.5 mg/kg) of the same compound?
Answer: Its AUMC0-t is 5504 ± 317 h·h·ng·mL^−1.

Question: And the MRTIV ([3]; iv, 2.5 mg/kg)?
Answer: Its MRTIV is 11.7 ± 0.512 h.
